{"source": "patent US20260027116A1", "about": "“Methods of Treating Chronic Graft-Versus-Host Disease Following Allogeneic Hematopoietic Stem Cell Transplantation” (Kadmon Corporation, LLC, priority 2022, published 2026)", "test_system": "lung function", "assay": "Example 1: percent predicted TLC change from baseline", "type": "in vivo, human", "conditions": "mean (SD)", "experimental": "Change From Baseline in Percent Predicted Total Lung Capacity (TLC) at Each Specified Time Points. TLC is the volume of air in the lungs upon the maximum effort of inspiration. Baseline value was defined as valid and last non-missing value obtained within 28 days prior to participant receiving first study medication. EOT visit was performed within 3 days after the participant's last dose of study drug. […] Analysis was performed on mITT population. Here, ‘number analyzed’=participants with available data for each specified category. Here, ‘0’ in the number analyzed field signifies that none of the participants were available for the analysis at the specified time points.", "data": [{"molecule": "CC(C)NC(=O)COc1cccc(-c2nc(Nc3ccc4[nH]ncc4c3)c3ccccc3n2)c1", "note": "[Belumosudil, 2-{3-[4-(1H-indazol-5-ylamino)-2-quinazolinyl]phenoxy}-N-(propan-2-yl) acetamide]", "values": [{"measurement": "Change From Baseline in Percent Predicted Total Lung Capacity (TLC)", "setting": "Cohort 1: 200 mg QD, Cycle 3, Day 1", "result": "1.6 (11.9) Percent Predicted TLC"}, {"measurement": "Change From Baseline in Percent Predicted Total Lung Capacity (TLC)", "setting": "Cohort 1: 200 mg QD, Cycle 5, Day 1", "result": "−2.6 (16.8) Percent Predicted TLC"}, {"measurement": "Change From Baseline in Percent Predicted Total Lung Capacity (TLC)", "setting": "Cohort 1: 200 mg QD, Cycle 7, Day 1", "result": "−3.7 (6.6) Percent Predicted TLC"}, {"measurement": "Change From Baseline in Percent Predicted Total Lung Capacity (TLC)", "setting": "Cohort 1: 200 mg QD, Cycle 9, Day 1", "result": "−2.9 (6.1) Percent Predicted TLC"}, {"measurement": "Change From Baseline in Percent Predicted Total Lung Capacity (TLC)", "setting": "Cohort 1: 200 mg QD, Cycle 11, Day 1", "result": "0.7 (4.3) Percent Predicted TLC"}, {"measurement": "Change From Baseline in Percent Predicted Total Lung Capacity (TLC)", "setting": "Cohort 1: 200 mg QD, Cycle 12, Day 1", "result": "−9.0 (—) Percent Predicted TLC"}, {"measurement": "Change From Baseline in Percent Predicted Total Lung Capacity (TLC)", "setting": "Cohort 1: 200 mg QD, Cycle 13, Day 1", "result": "−0.3 (7.1) Percent Predicted TLC"}, {"measurement": "Change From Baseline in Percent Predicted Total Lung Capacity (TLC)", "setting": "Cohort 1: 200 mg QD, Cycle 14, Day 1", "result": "23.0 (—) Percent Predicted TLC"}, {"measurement": "Change From Baseline in Percent Predicted Total Lung Capacity (TLC)", "setting": "Cohort 1: 200 mg QD, Cycle 15, Day 1", "result": "−2.8 (10.8) Percent Predicted TLC"}, {"measurement": "Change From Baseline in Percent Predicted Total Lung Capacity (TLC)", "setting": "Cohort 1: 200 mg QD, Cycle 16, Day 1", "result": "−3.0 (—) Percent Predicted TLC"}, {"measurement": "Change From Baseline in Percent Predicted Total Lung Capacity (TLC)", "setting": "Cohort 1: 200 mg QD, Cycle 17, Day 1", "result": "−3.0 (6.2) Percent Predicted TLC"}, {"measurement": "Change From Baseline in Percent Predicted Total Lung Capacity (TLC)", "setting": "Cohort 1: 200 mg QD, Cycle 19, Day 1", "result": "−4.6 (6.1) Percent Predicted TLC"}, {"measurement": "Change From Baseline in Percent Predicted Total Lung Capacity (TLC)", "setting": "Cohort 1: 200 mg QD, Cycle 21, Day 1", "result": "0.3 (9.3) Percent Predicted TLC"}, {"measurement": "Change From Baseline in Percent Predicted Total Lung Capacity (TLC)", "setting": "Cohort 1: 200 mg QD, Cycle 23, Day 1", "result": "0.0 (8.7) Percent Predicted TLC"}, {"measurement": "Change From Baseline in Percent Predicted Total Lung Capacity (TLC)", "setting": "Cohort 1: 200 mg QD, Cycle 24, Day 1", "result": "0.0 (—) Percent Predicted TLC"}, {"measurement": "Change From Baseline in Percent Predicted Total Lung Capacity (TLC)", "setting": "Cohort 1: 200 mg QD, Cycle 25, Day 1", "result": "−3.0 (7.1) Percent Predicted TLC"}, {"measurement": "Change From Baseline in Percent Predicted Total Lung Capacity (TLC)", "setting": "Cohort 1: 200 mg QD, Cycle 26, Day 1", "result": "0.0 (—) Percent Predicted TLC"}, {"measurement": "Change From Baseline in Percent Predicted Total Lung Capacity (TLC)", "setting": "Cohort 1: 200 mg QD, Cycle 27, Day 1", "result": "5.5 (16.3) Percent Predicted TLC"}, {"measurement": "Change From Baseline in Percent Predicted Total Lung Capacity (TLC)", "setting": "Cohort 1: 200 mg QD, Cycle 29, Day 1", "result": "−1.0 (17.0) Percent Predicted TLC"}, {"measurement": "Change From Baseline in Percent Predicted Total Lung Capacity (TLC)", "setting": "Cohort 1: 200 mg QD, Cycle 30, Day 1", "result": "7.0 (—) Percent Predicted TLC"}, {"measurement": "Change From Baseline in Percent Predicted Total Lung Capacity (TLC)", "setting": "Cohort 1: 200 mg QD, Cycle 31, Day 1", "result": "7.5 (17.7) Percent Predicted TLC"}, {"measurement": "Change From Baseline in Percent Predicted Total Lung Capacity (TLC)", "setting": "Cohort 1: 200 mg QD, Cycle 32, Day 1", "result": "1.0 (—) Percent Predicted TLC"}, {"measurement": "Change From Baseline in Percent Predicted Total Lung Capacity (TLC)", "setting": "Cohort 1: 200 mg QD, Cycle 33, Day 1", "result": "14.0 (11.3) Percent Predicted TLC"}, {"measurement": "Change From Baseline in Percent Predicted Total Lung Capacity (TLC)", "setting": "Cohort 1: 200 mg QD, Cycle 34, Day 1", "result": "2.0 (—) Percent Predicted TLC"}, {"measurement": "Change From Baseline in Percent Predicted Total Lung Capacity (TLC)", "setting": "Cohort 1: 200 mg QD, Cycle 35, Day 1", "result": "10.5 (7.8) Percent Predicted TLC"}, {"measurement": "Change From Baseline in Percent Predicted Total Lung Capacity (TLC)", "setting": "Cohort 1: 200 mg QD, Cycle 36, Day 1", "result": "6.0 (—) Percent Predicted TLC"}, {"measurement": "Change From Baseline in Percent Predicted Total Lung Capacity (TLC)", "setting": "Cohort 1: 200 mg QD, Cycle 48, Day 1", "result": "−13.0 (—) Percent Predicted TLC"}, {"measurement": "Change From Baseline in Percent Predicted Total Lung Capacity (TLC)", "setting": "Cohort 1: 200 mg QD, Cycle 49, Day 1", "result": "5.0 (—) Percent Predicted TLC"}, {"measurement": "Change From Baseline in Percent Predicted Total Lung Capacity (TLC)", "setting": "Cohort 1: 200 mg QD, Cycle 51, Day 1", "result": "15.0 (—) Percent Predicted TLC"}, {"measurement": "Change From Baseline in Percent Predicted Total Lung Capacity (TLC)", "setting": "Cohort 1: 200 mg QD, Cycle 52, Day 1", "result": "1.0 (—) Percent Predicted TLC"}, {"measurement": "Change From Baseline in Percent Predicted Total Lung Capacity (TLC)", "setting": "Cohort 1: 200 mg QD, Cycle 53, Day 1", "result": "15.0 (—) Percent Predicted TLC"}, {"measurement": "Change From Baseline in Percent Predicted Total Lung Capacity (TLC)", "setting": "Cohort 1: 200 mg QD, Cycle 54, Day 1", "result": "4.0 (—) Percent Predicted TLC"}, {"measurement": "Change From Baseline in Percent Predicted Total Lung Capacity (TLC)", "setting": "Cohort 1: 200 mg QD, Cycle 55, Day 1", "result": "29.0 (—) Percent Predicted TLC"}, {"measurement": "Change From Baseline in Percent Predicted Total Lung Capacity (TLC)", "setting": "Cohort 1: 200 mg QD, Cycle 56, Day 1", "result": "9.0 (—) Percent Predicted TLC"}, {"measurement": "Change From Baseline in Percent Predicted Total Lung Capacity (TLC)", "setting": "Cohort 1: 200 mg QD, Cycle 57, Day 1", "result": "18.0 (—) Percent Predicted TLC"}, {"measurement": "Change From Baseline in Percent Predicted Total Lung Capacity (TLC)", "setting": "Cohort 1: 200 mg QD, Cycle 58, Day 1", "result": "5.0 (—) Percent Predicted TLC"}, {"measurement": "Change From Baseline in Percent Predicted Total Lung Capacity (TLC)", "setting": "Cohort 1: 200 mg QD, Cycle 60, Day 1", "result": "−3.0 (—) Percent Predicted TLC"}, {"measurement": "Change From Baseline in Percent Predicted Total Lung Capacity (TLC)", "setting": "Cohort 1: 200 mg QD, Cycle 61, Day 1", "result": "5.0 (—) Percent Predicted TLC"}, {"measurement": "Change From Baseline in Percent Predicted Total Lung Capacity (TLC)", "setting": "Cohort 1: 200 mg QD, Cycle 62, Day 1", "result": "−1.0 (—) Percent Predicted TLC"}, {"measurement": "Change From Baseline in Percent Predicted Total Lung Capacity (TLC)", "setting": "Cohort 1: 200 mg QD, Cycle 63, Day 1", "result": "12.0 (—) Percent Predicted TLC"}, {"measurement": "Change From Baseline in Percent Predicted Total Lung Capacity (TLC)", "setting": "Cohort 1: 200 mg QD, Cycle 67, Day 1", "result": "12.0 (—) Percent Predicted TLC"}, {"measurement": "Change From Baseline in Percent Predicted Total Lung Capacity (TLC)", "setting": "Cohort 1: 200 mg QD, EOT", "result": "5.2 (27.5) Percent Predicted TLC"}, {"measurement": "Change From Baseline in Percent Predicted Total Lung Capacity (TLC)", "setting": "Cohort 2: 200 mg BID, Cycle 3, Day 1", "result": "1.9 (8.5) Percent Predicted TLC"}, {"measurement": "Change From Baseline in Percent Predicted Total Lung Capacity (TLC)", "setting": "Cohort 2: 200 mg BID, Cycle 5, Day 1", "result": "−7.2 (10.5) Percent Predicted TLC"}, {"measurement": "Change From Baseline in Percent Predicted Total Lung Capacity (TLC)", "setting": "Cohort 2: 200 mg BID, Cycle 7, Day 1", "result": "−4.4 (6.3) Percent Predicted TLC"}, {"measurement": "Change From Baseline in Percent Predicted Total Lung Capacity (TLC)", "setting": "Cohort 2: 200 mg BID, Cycle 8, Day 1", "result": "−5.0 (—) Percent Predicted TLC"}, {"measurement": "Change From Baseline in Percent Predicted Total Lung Capacity (TLC)", "setting": "Cohort 2: 200 mg BID, Cycle 9, Day 1", "result": "−6.0 (8.5) Percent Predicted TLC"}, {"measurement": "Change From Baseline in Percent Predicted Total Lung Capacity (TLC)", "setting": "Cohort 2: 200 mg BID, Cycle 10, Day 1", "result": "−18.5 (6.4) Percent Predicted TLC"}, {"measurement": "Change From Baseline in Percent Predicted Total Lung Capacity (TLC)", "setting": "Cohort 2: 200 mg BID, Cycle 11, Day 1", "result": "−5.2 (11.2) Percent Predicted TLC"}, {"measurement": "Change From Baseline in Percent Predicted Total Lung Capacity (TLC)", "setting": "Cohort 2: 200 mg BID, Cycle 12, Day 1", "result": "0.0 (—) Percent Predicted TLC"}]}]}
